Experimental findings from the NIST ThermoML archive (doi:10.1016/j.tca.2018.03.018) are described below.

Structures are written as SMILES. ± gives the expanded uncertainty stated by the source.

The nature of data set [1]: Molar enthalpy of transition or fusion. The settings on record: Crystal; DSC.
For data set [2] the following is noted: Crystal; DSC.

Regarding `CCCCCCCCCCCCCCCCCC(=O)O` [octadecanoic acid], the “Molar enthalpy of transition or fusion” value in data set [1] worked out at 12 ± 0.335 kcal/mol. Further, the Triple point temperature in data set [2] is 325.66 ± 1 K.
